According to ChEMBL document CHEMBL6114948, “Deep mutational scanning-guided design of a high-affinity helix-loop-helix peptide targeting G-CSF receptor” (Bioorg Med Chem Lett, 2025):
pKd: −log10 of the molar value. Residues, ends and D or L forms follow the SMILES beside them.

Tests used:
[1] = Binding affinity to recombinant G-CSFR extracellular domain (unknown origin) by surface plasmon resonance analysis; set-up: species or system Homo sapiens
[2] = Stability of the compound at 20 deg C assessed as change in alpha-helical structure by CD spectra analysis; type: physicochemical
[3] = molecular target: T1, Granulocyte colony-stimulating factor receptor (Homo sapiens) (UniProt Q99062); experiment: Potency index, ratio of P8-2KA KD to test compound KD for binding affinity to recombinant G-CSFR extracellular domain (unknown origin)
T1 sequence (whole entry): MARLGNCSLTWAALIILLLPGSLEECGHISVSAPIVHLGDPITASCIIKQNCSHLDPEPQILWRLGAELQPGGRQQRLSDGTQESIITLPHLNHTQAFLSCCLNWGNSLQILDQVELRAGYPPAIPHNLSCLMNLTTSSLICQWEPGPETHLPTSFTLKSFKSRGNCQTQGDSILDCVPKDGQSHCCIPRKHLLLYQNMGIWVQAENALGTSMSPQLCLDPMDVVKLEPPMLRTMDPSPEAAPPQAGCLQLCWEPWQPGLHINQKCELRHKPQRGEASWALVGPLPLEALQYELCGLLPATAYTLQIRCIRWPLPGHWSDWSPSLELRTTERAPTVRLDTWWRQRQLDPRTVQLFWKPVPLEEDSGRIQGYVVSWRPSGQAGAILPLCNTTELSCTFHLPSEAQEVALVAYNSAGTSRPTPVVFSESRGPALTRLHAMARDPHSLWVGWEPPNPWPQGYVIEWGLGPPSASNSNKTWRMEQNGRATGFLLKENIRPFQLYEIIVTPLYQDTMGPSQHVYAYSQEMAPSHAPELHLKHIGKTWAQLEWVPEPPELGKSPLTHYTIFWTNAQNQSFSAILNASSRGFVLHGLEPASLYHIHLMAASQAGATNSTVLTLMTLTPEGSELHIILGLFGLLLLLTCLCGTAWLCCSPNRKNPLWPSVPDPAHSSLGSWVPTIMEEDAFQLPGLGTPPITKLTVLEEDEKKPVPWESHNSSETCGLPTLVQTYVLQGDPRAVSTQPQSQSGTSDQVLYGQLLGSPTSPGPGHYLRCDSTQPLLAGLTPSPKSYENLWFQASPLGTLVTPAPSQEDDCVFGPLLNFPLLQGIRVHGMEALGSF

| Compound | pKd [1] | Stability [2] | Ratio [3] |
| --- | --- | --- | --- |
| CC[C@H](C)[C@H](NC(=O)[C@H](C)NC(=O)[C@H](CC(C)C)NC(=O)[C@H](CCC(=O)O)NC(=O)[C@H](C)NC(=O)[C@H](C)NC(=O)[C@@H](N)CS)C(=O)N[C@@H](CC(C)C)C(=O)N[C@@H](CCC(=O)O)C(=O)N[C@@H](C)C(=O)N[C@@H](CCC(=O)O)C(=O)N[C@H](C(=O)N[C@@H](C)C(=O)N[C@@H](C)C(=O)N[C@@H](CC(C)C)C(=O)N[C@@H](CCC(=O)O)C(=O)NCC(=O)NCC(=O)NCC(=O)NCC(=O)NCC(=O)NCC(=O)NCC(=O)N[C@@H](Cc1ccc(O)cc1)C(=O)N[C@@H](CC(C)C)C(=O)N[C@@H](CCC(=O)O)C(=O)N[C@@H](CCSC)C(=O)N[C@@H](CC(C)C)C(=O)N[C@@H](CCCCN)C(=O)N[C@@H](CC(C)C)C(=O)N[C@@H](CCCCN)C(=O)N[C@@H](CC(C)C)C(=O)N[C@@H](C)C(=O)N[C@@H](CCC(=O)O)C(=O)N[C@@H](C)C(=O)N[C@@H](CCCCN)C(=O)N[C@@H](CCCNC(=N)N)C(=O)N[C@@H](Cc1ccc(O)cc1)C(=O)N[C@@H](CS)C(=O)O)[C@@H](C)CC (H-CAAELAILEAEIAALEGGGGGGGYLEMLKLKLAEAKRYC-OH) | 9.74 |  |  |
| CC[C@H](C)[C@H](NC(=O)[C@H](C)NC(=O)[C@H](CC(C)C)NC(=O)[C@H](CCC(=O)O)NC(=O)[C@H](C)NC(=O)[C@H](C)NC(=O)[C@@H](N)CS)C(=O)N[C@@H](CC(C)C)C(=O)N[C@@H](CCC(=O)O)C(=O)N[C@@H](C)C(=O)N[C@@H](CCC(=O)O)C(=O)N[C@H](C(=O)N[C@@H](C)C(=O)N[C@@H](C)C(=O)N[C@@H](CC(C)C)C(=O)N[C@@H](CCC(=O)O)C(=O)NCC(=O)NCC(=O)NCC(=O)NCC(=O)NCC(=O)NCC(=O)NCC(=O)N[C@@H](Cc1ccc(O)cc1)C(=O)N[C@@H](CC(C)C)C(=O)N[C@@H](CCC(=O)O)C(=O)N[C@@H](CCSC)C(=O)N[C@@H](CC(C)C)C(=O)N[C@@H](CCCCN)C(=O)N[C@@H](CC(C)C)C(=O)N[C@@H](CCCCN)C(=O)N[C@@H](CC(C)C)C(=O)N[C@@H](C)C(=O)N[C@@H](CCC(=O)O)C(=O)N[C@@H](CC(C)C)C(=O)N[C@@H](CCCCN)C(=O)N[C@@H](CCCNC(=N)N)C(=O)N[C@@H](Cc1ccc(O)cc1)C(=O)N[C@@H](CS)C(=O)O)[C@@H](C)CC (H-CAAELAILEAEIAALEGGGGGGGYLEMLKLKLAELKRYC-OH) | 8.55 |  |  |
| CC[C@H](C)[C@H](NC(=O)[C@H](C)NC(=O)[C@H](CC(C)C)NC(=O)[C@H](CCC(=O)O)NC(=O)[C@H](C)NC(=O)[C@H](C)NC(=O)[C@@H](N)CS)C(=O)N[C@@H](CC(C)C)C(=O)N[C@@H](CCC(=O)O)C(=O)N[C@@H](C)C(=O)N[C@@H](CCC(=O)O)C(=O)N[C@@H](CC(C)C)C(=O)N[C@@H](C)C(=O)N[C@@H](C)C(=O)N[C@@H](CC(C)C)C(=O)N[C@@H](CCC(=O)O)C(=O)NCC(=O)NCC(=O)NCC(=O)NCC(=O)NCC(=O)NCC(=O)NCC(=O)N[C@@H](Cc1ccc(O)cc1)C(=O)N[C@@H](CC(C)C)C(=O)N[C@@H](CCC(=O)O)C(=O)N[C@@H](CCSC)C(=O)N[C@@H](CC(C)C)C(=O)N[C@@H](CCCCN)C(=O)N[C@@H](CC(C)C)C(=O)N[C@@H](CCCCN)C(=O)N[C@@H](CC(C)C)C(=O)N[C@@H](C)C(=O)N[C@@H](CCC(=O)O)C(=O)N[C@@H](C)C(=O)N[C@@H](CCCCN)C(=O)N[C@@H](CCCNC(=N)N)C(=O)N[C@@H](Cc1ccc(O)cc1)C(=O)N[C@@H](CS)C(=O)O (H-CAAELAILEAELAALEGGGGGGGYLEMLKLKLAEAKRYC-OH) | 9.31 |  |  |
| H-AELAALEAELAALEGGGGGGGKLAMLKLKLAELKRY-OH | 6.42 | Stable |  |
| H-AELAILEAEIAALEGGGGGGGYLEMLKLKLAEAKRY-OH | 7.80 | Stable | 24 |

Other lines, results leading:

| pKd [1] | Stability [2] | Ratio [3] | Compound |
| --- | --- | --- | --- |
| 9.62 |  |  | CC[C@H](C)[C@H](NC(=O)[C@H](CCC(=O)O)NC(=O)[C@H](C)NC(=O)[C@H](CCC(=O)O)NC(=O)[C@H](CC(C)C)NC(=O)[C@H](C)NC(=O)[C@H](C)NC(=O)[C@H](CC(C)C)NC(=O)[C@H](CCC(=O)O)NC(=O)[C@H](C)NC(=O)[C@H](C)NC(=O)[C@@H](N)CS)C(=O)N[C@@H](C)C(=O)N[C@@H](C)C(=O)N[C@@H](CC(C)C)C(=O)N[C@@H](CCC(=O)O)C(=O)NCC(=O)NCC(=O)NCC(=O)NCC(=O)NCC(=O)NCC(=O)NCC(=O)N[C@@H](Cc1ccc(O)cc1)C(=O)N[C@@H](CC(C)C)C(=O)N[C@@H](CCC(=O)O)C(=O)N[C@@H](CCSC)C(=O)N[C@@H](CC(C)C)C(=O)N[C@@H](CCCCN)C(=O)N[C@@H](CC(C)C)C(=O)N[C@@H](CCCCN)C(=O)N[C@@H](CC(C)C)C(=O)N[C@@H](C)C(=O)N[C@@H](CCC(=O)O)C(=O)N[C@@H](C)C(=O)N[C@@H](CCCCN)C(=O)N[C@@H](CCCNC(=N)N)C(=O)N[C@@H](Cc1ccc(O)cc1)C(=O)N[C@@H](CS)C(=O)O (H-CAAELAALEAEIAALEGGGGGGGYLEMLKLKLAEAKRYC-OH) |
| 9.05 |  |  | CC[C@H](C)[C@H](NC(=O)[C@H](C)NC(=O)[C@H](CC(C)C)NC(=O)[C@H](CCC(=O)O)NC(=O)[C@H](C)NC(=O)[C@H](C)NC(=O)[C@@H](N)CS)C(=O)N[C@@H](CC(C)C)C(=O)N[C@@H](CCC(=O)O)C(=O)N[C@@H](C)C(=O)N[C@@H](CCC(=O)O)C(=O)N[C@H](C(=O)N[C@@H](C)C(=O)N[C@@H](C)C(=O)N[C@@H](CC(C)C)C(=O)N[C@@H](CCC(=O)O)C(=O)NCC(=O)NCC(=O)NCC(=O)NCC(=O)NCC(=O)NCC(=O)NCC(=O)N[C@@H](CCCCN)C(=O)N[C@@H](CC(C)C)C(=O)N[C@@H](CCC(=O)O)C(=O)N[C@@H](CCSC)C(=O)N[C@@H](CC(C)C)C(=O)N[C@@H](CCCCN)C(=O)N[C@@H](CC(C)C)C(=O)N[C@@H](CCCCN)C(=O)N[C@@H](CC(C)C)C(=O)N[C@@H](C)C(=O)N[C@@H](CCC(=O)O)C(=O)N[C@@H](C)C(=O)N[C@@H](CCCCN)C(=O)N[C@@H](CCCNC(=N)N)C(=O)N[C@@H](Cc1ccc(O)cc1)C(=O)N[C@@H](CS)C(=O)O)[C@@H](C)CC (H-CAAELAILEAEIAALEGGGGGGGKLEMLKLKLAEAKRYC-OH) |
| 9.80 |  |  | CC[C@H](C)[C@H](NC(=O)[C@H](C)NC(=O)[C@H](CC(C)C)NC(=O)[C@H](CCC(=O)O)NC(=O)[C@H](C)NC(=O)[C@H](C)NC(=O)[C@@H](N)CS)C(=O)N[C@@H](CC(C)C)C(=O)N[C@@H](CCC(=O)O)C(=O)N[C@@H](C)C(=O)N[C@@H](CCC(=O)O)C(=O)N[C@H](C(=O)N[C@@H](C)C(=O)N[C@@H](C)C(=O)N[C@@H](CC(C)C)C(=O)N[C@@H](CCC(=O)O)C(=O)NCC(=O)NCC(=O)NCC(=O)NCC(=O)NCC(=O)NCC(=O)NCC(=O)N[C@@H](Cc1ccc(O)cc1)C(=O)N[C@@H](CC(C)C)C(=O)N[C@@H](C)C(=O)N[C@@H](CCSC)C(=O)N[C@@H](CC(C)C)C(=O)N[C@@H](CCCCN)C(=O)N[C@@H](CC(C)C)C(=O)N[C@@H](CCCCN)C(=O)N[C@@H](CC(C)C)C(=O)N[C@@H](C)C(=O)N[C@@H](CCC(=O)O)C(=O)N[C@@H](C)C(=O)N[C@@H](CCCCN)C(=O)N[C@@H](CCCNC(=N)N)C(=O)N[C@@H](Cc1ccc(O)cc1)C(=O)N[C@@H](CS)C(=O)O)[C@@H](C)CC (H-CAAELAILEAEIAALEGGGGGGGYLAMLKLKLAEAKRYC-OH) |
